What follows are molecules tested against T1, telomerase enzyme (Homo sapiens, UniProt O14746) (assay: Flash Plate-based telomerase activity assay). Conditions: two hours incubation at 37°, biotinylated oligo primer, radiolabeled probe, streptavidin flash plate; read-out: IC50 (telomerase inhibitory activity).
T1 construct: telomerase enzyme diluted in a buffer
Assay type: biochemical
Procedure: The telomerase activity of the compounds has been evaluated using a Flash Plate-based assay.
The assay mixture is constituted of:
telomerase enzyme diluted in a buffer, the composition of which has been selected to maintain the enzyme activity stable along the duration of the assay.
dNTPs, deoxynucleotides 5′-triphosphate.
biotinylated oligo as primer.
increasing concentrations of test compounds/positive control.
After two hours of incubation at 37° degrees the telomeric repeats added by telomerase are evaluated by hybridization in solution with a 3′-radioactive labeled short oligonucleotide probe. The extent of hybridization is then quantitated by transferring the reaction mixture in a streptavidin-coated flash plate, where the binding between biotin and streptavidin occurs. The telomerase activity is proportional to the radioactivity measured and the inhibitory activity of the compounds is evaluated as IC50 using the Sigma Plot fit program.
The IC50 values for the compounds of the present invention were determined according to the above-described method.

T1 sequence (O14746 whole entry): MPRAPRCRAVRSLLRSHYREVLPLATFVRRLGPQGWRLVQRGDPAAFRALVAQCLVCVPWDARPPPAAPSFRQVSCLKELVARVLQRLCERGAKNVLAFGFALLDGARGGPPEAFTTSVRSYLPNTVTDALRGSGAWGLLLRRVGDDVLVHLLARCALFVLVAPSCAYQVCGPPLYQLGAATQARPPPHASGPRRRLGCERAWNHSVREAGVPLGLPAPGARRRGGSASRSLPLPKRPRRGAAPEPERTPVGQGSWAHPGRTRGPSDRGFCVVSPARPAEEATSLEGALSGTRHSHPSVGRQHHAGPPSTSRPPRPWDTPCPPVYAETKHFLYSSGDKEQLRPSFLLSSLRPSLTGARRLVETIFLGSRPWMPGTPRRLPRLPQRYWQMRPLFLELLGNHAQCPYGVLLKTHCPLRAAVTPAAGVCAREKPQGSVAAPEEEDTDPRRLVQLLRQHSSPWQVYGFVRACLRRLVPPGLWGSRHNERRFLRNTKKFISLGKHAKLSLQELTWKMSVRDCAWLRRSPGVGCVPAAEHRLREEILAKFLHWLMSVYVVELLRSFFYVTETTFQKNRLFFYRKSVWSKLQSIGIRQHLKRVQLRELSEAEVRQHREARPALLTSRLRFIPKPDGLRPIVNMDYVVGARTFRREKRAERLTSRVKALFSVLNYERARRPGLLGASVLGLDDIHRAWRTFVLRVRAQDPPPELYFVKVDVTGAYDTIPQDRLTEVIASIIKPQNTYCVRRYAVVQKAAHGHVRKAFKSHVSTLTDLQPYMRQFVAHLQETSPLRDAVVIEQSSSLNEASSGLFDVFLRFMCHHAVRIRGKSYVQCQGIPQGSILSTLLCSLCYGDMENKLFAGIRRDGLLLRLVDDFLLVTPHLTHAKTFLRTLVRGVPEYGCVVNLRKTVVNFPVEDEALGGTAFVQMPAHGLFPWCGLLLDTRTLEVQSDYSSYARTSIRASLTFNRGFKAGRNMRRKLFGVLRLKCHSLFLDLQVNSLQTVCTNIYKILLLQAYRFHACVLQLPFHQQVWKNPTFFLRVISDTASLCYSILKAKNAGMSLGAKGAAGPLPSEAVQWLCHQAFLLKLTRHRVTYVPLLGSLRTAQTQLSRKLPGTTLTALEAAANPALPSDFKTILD

Compared with `COc1ccc(C=C2Oc3c(ccc(O)c3O)C2=O)cc1OC` [Compound 3, 2-(3,4-dimethoxybenzylidene)-6,7-dihydroxy-1-benzofuran-3(2H)-one], `O=C1C(=Cc2ccc(O)c(O)c2)Oc2c1ccc(O)c2O` [Compound 1, 2-(3,4-dihydroxybenzylidene)-6,7-dihydroxy-1-benzofuran-3(2H)-one] is 37-fold lower in IC50: 11 µM for the first, 0.3 µM for the second. The second is the more potent here.

Going from `O=C1C(=Cc2ccc(O)cc2O)Oc2c1ccc(O)c2O` [Compound 4, 2-(2,4-dihydroxybenzylidene)-6,7-dihydroxy-1-benzofuran-3(2H)-one] to `O=C1C(=Cc2ccc(Cl)c(Cl)c2)Oc2c1ccc(O)c2O` [Compound 5, 2-(3,4-dichlorobenzylidene)-6,7-dihydroxy-1-benzofuran-3(2H)-one], the IC50 rises from 1.5 µM to 8 µM (5.3-fold).

Compared with `O=C1C(=Cc2ccc3c(c2)OCO3)Oc2c1ccc(O)c2O` [Compound 2, 2-(1,3-benzodioxol-5-ylmethylene)-6,7-dihydroxy-1-benzofuran-3(2H)-one], `O=C1c2ccc(O)c(O)c2OC1Cc1ccc(O)c(O)c1` (stereo not drawn) [Compound 89, 2-(3,4-dihydroxybenzyl)-6,7-dihydroxy-1-benzofuran-3(2H)-one] is 1.9-fold lower in IC50: 13 µM for the first, 7 µM for the second. The second is the more potent here.

Reference: US20040132807A1, “Aurones as telomerase inhibitors” (priority 2001, published 2004)
